Target: Wild-type human active MASTL (Homo sapiens (Human), UniProt Q96GX5)
Test: MASTL activity assay
Assay type: biochemical
Details: ATP 18 μM, biotin tagged 40-mer ENSA peptide 10 nM, 60 minutes at room temperature, HTRF/FRET readout
Experimental: Wild-type human active MASTL (154 pM) was incubated in assay buffer (50 mM HEPES, 100 mM NaCl, 0.1 mM EGTA, 10 mM MgCl2, 0.01% Tween-20, 0.5 mM TCEP, pH 7.5) with biotin tagged 40-mer ENSA peptide (10 nM), test compound and ATP (18 μM) for 60 minutes at room temperature. Test compounds were assayed using a 12-point dose range consisting of a 0, DMSO control and 10 sequential doses consisting from 0.0005, 0.002, 0.005, 0.014, 0.04, 0.12, 0.37, 1.11, 3.33 and 10 μM. The DMSO concentration was the same (1%) in all samples. An equal volume of detection buffer (assay buffer+267.5 pM Ab-K, 1.25 nM SA-D2, 20 mM EDTA and 400 mM KF) was added to stop the reaction to make a final volume of 20 μl, RT for 60 mins. Activity was measured using a plate reader (PerkinElmer EnSight) by the FRET signal generated between SA-D2 (streptavidin-D2) and Ab-K (anti-phospho-Serine 67 ENSA antibody (rabbit polyclonal, using standard techniques by a commercial supplier) conjugated to Cryptate). HTRF reagents (CisBio) were prepared as per the manufacturer recommendations. The 40-mer biotin-tagged ENSA peptide (synthesised by Bionics) used was based around Serine 67 on ENSA ([…]).

Sequence of Wild-type human active MASTL (Q96GX5 whole entry): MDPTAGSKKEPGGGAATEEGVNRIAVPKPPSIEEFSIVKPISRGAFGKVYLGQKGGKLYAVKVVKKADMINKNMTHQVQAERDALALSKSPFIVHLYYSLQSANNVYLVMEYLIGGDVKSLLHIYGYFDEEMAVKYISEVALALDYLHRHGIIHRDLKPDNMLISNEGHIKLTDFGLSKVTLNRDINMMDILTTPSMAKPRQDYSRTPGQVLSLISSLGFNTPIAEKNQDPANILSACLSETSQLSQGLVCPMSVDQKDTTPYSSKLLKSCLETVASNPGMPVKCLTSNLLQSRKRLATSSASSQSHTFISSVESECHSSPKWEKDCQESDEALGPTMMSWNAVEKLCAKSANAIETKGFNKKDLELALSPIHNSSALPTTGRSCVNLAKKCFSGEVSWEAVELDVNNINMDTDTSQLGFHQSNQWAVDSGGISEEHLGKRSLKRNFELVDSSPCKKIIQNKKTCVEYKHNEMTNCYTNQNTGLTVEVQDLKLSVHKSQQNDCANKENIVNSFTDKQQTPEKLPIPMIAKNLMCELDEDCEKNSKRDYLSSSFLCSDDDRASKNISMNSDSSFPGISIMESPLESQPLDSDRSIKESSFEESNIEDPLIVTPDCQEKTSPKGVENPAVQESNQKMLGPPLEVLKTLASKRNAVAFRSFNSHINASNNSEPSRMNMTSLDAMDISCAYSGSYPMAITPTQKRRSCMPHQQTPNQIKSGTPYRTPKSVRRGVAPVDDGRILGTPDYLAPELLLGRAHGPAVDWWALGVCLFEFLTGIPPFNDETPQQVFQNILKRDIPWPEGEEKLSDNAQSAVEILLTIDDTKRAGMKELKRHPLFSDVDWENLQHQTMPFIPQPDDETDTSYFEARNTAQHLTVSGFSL

Row | IC50 [nM] | SMILES
1 | 1 to 500 | Cc1ncc2ccc(-c3nc(N)nc(N[C@@H](c4ccc(F)cn4)C(C)C)n3)cn12 (single isomer, unassigned) [Example 136A, N2-[(1R or 1S)-1-(5-fluoro-2-pyridyl)-2-methyl-propyl]-6-(3-methylimidazo[1,5-a]pyridin-6-yl)-1,3,5-triazine-2,4-diamine]
2 | 1 to 500 | Cc1ncc2ccc(-c3nc(N)nc(N[C@H](c4c[nH]c(C(F)(F)F)n4)C(C)C)n3)cn12 (single isomer, unassigned) [Example 142B, 6-(3-methylimidazo[1,5-a]pyridin-6-yl)-N2-[(1R or 1S)-2-methyl-1-[2-(trifluoromethyl)-1H-imidazol-4-yl]propyl]-1,3,5-triazine-2,4-diamine]
3 | 1 to 500 | Cc1ncc2ccc(-c3nc(N)nc(NC[C@H](O)c4cccc(Cl)c4Cl)n3)cn12 (single isomer, unassigned) [Example 146A, (1S or 1R)-[[4-amino-6-(3-methylimidazo[1,5-a]pyridin-6-yl)-1,3,5-triazin-2-yl]amino]-1-(2,3-dichlorophenyl) ethanol]
4 | > 1000 | Cc1ncc2ccc(-c3nc(N)nc(N[C@H](c4ccc(F)cn4)C(C)C)n3)cn12 (single isomer, unassigned) [Example 136B, N2-[(1R or 1S)-1-(5-fluoro-2-pyridyl)-2-methyl-propyl]-6-(3-methylimidazo[1,5-a]pyridin-6-yl)-1,3,5-triazine-2,4-diamine]
5 | 1 to 500 | Cc1ncc2ccc(-c3nc(N)nc(N[C@H](CC(C)C)c4c[nH]c(C(F)(F)F)n4)n3)cn12 (single isomer, unassigned) [Example 152A, 6-(3-methylimidazo[1,5-a]pyridin-6-yl)-N4-[(1S or 1R)-3-methyl-1-[2-(trifluoromethyl)-1H-imidazol-4-yl]butyl]-1,3,5-triazine-2,4-diamine]
6 | > 1000 | CNc1nc(NCC(O)c2cccc(Cl)c2Cl)cc(-c2ccc3cnc(C)n3c2)n1 (single isomer, unassigned) [Example 143B, (1R or 1S)-1-(2,3-dichlorophenyl)-2-[[2-(methylamino)-6-(3-methylimidazo[1,5-a]pyridin-6-yl)pyrimidin-4-yl]amino]ethanol]
7 | 1 to 500 | CNc1nc(N[C@H](c2c[nH]c(C(F)(F)F)n2)C(C)C)nc(-c2ccc3cnc(C)n3c2)n1 (single isomer, unassigned) [Example 149B, N2-methyl-6-(3-methylimidazo[1,5-a]pyridin-6-yl)-N4-[(1S or 1R)-2-methyl-1-[2-(trifluoromethyl)-1H-imidazol-4-yl]propyl]-1,3,5-triazine-2,4-diamine]
8 | 1 to 500 | Cc1ncc2ccc(-c3nc(N)nc(NC[C@@H](O)c4cccc(Cl)c4Cl)n3)cn12 (single isomer, unassigned) [Example 146B, (1S or 1R)-[[4-amino-6-(3-methylimidazo[1,5-a]pyridin-6-yl)-1,3,5-triazin-2-yl]amino]-1-(2,3-dichlorophenyl) ethanol]
9 | 1 to 500 | CNc1nc(N[C@@H](c2c[nH]c(C(F)(F)F)n2)C(C)C)nc(-c2ccc3cnc(C)n3c2)n1 (single isomer, unassigned) [Example 149A, N2-methyl-6-(3-methylimidazo[1,5-a]pyridin-6-yl)-N4-[(1S or 1R)-2-methyl-1-[2-(trifluoromethyl)-1H-imidazol-4-yl]propyl]-1,3,5-triazine-2,4-diamine]
10 | 500 to 1000 | Cc1nc([C@H](Nc2nc(N)nc(-c3ccc4cnc(C)n4c3)n2)C(C)C)c[nH]1 (single isomer, unassigned) [Example 155A, 6-(3-methylimidazo[1,5-a]pyridin-6-yl)-N4-[(1S or 1R)-2-methyl-1-(2-methyl-1H-imidazol-4-yl)propyl]-1,3,5-triazine-2,4-diamine]
11 | > 1000 | CC(C)CC(Nc1nc(N)nc(-c2ccc3cnn(C)c3c2)n1)c1c[nH]c(C(F)(F)F)n1 (single isomer, unassigned) [Example 180A, 6-(1-methylindazol-6-yl)-N4-[(1R or 1S)-3-methyl-1-[2-(trifluoromethyl)-1H-imidazol-4-yl]butyl]-1,3,5-triazine-2,4-diamine]
12 | 1 to 500 | CC(C)C(Nc1nc(N)nc(-c2ccc3c(cnn3C)c2)n1)c1ccn(C(F)F)n1 (single isomer, unassigned) [Example 47A, (R or S)—N2-(1-(1-(difluoromethyl)-1H-pyrazol-3-yl)-2-methylpropyl)-6-(1-methyl-1H-indazol-5-yl)-1,3,5-triazine-2,4-diamine]
13 | 1 to 500 | Cc1ncc2ccc(-c3nc(N)nc(NC(c4c[nH]c(C(F)(F)F)n4)C4CCCCC4)n3)cn12 (single isomer, unassigned) [Example 153B, N4-[(S or R)-cyclohexyl-[2-(trifluoromethyl)-1H-imidazol-4-yl]methyl]-6-(3-methylimidazo[1,5-a]pyridin-6-yl)-1,3,5-triazine-2,4-diamine]
14 | 1 to 500 | CC(C)CC(Nc1nc(N)nc(-c2ccc3cnn(C)c3c2)n1)c1c[nH]c(C(F)(F)F)n1 (single isomer, unassigned) [Example 180B, 6-(1-methylindazol-6-yl)-N4-[(1R or 1S)-3-methyl-1-[2-(trifluoromethyl)-1H-imidazol-4-yl]butyl]-1,3,5-triazine-2,4-diamine]
15 | > 1000 | CNc1nc(N[C@H](c2ccn(C(F)F)n2)C(C)C)nc(-c2ccc3cnn(C)c3c2)n1 (single isomer, unassigned) [Example 29B, N4-[(1S or 1R)-1-[1-(difluoromethyl)pyrazol-3-yl]-2-methyl-propyl]-N2-(trideuteriomethyl)-6-[1-(trideuteriomethyl)indazol-6-yl]-1,3,5-triazine-2,4-diamine]
16 | 1 to 500 | Cc1ncc2ccc(-c3nc(N)nc(N[C@H](CC4CC4)c4c[nH]c(C(F)(F)F)n4)n3)cn12 (single isomer, unassigned) [Example 7A, N4-[(1S or 1R)-2-cyclopropyl-1-[2-(trifluoromethyl)-1H-imidazol-4-yl]ethyl]-6-(3-methylimidazo[1,5-a]pyridin-6-yl)-1,3,5-triazine-2,4-diamine]
17 | 1 to 500 | CNc1nc(NC[C@H](O)c2cccc(Cl)c2Cl)cc(-c2ccc3cnc(C)n3c2)n1 (single isomer, unassigned) [Example 143A, (1R or 1S)-1-(2,3-dichlorophenyl)-2-[[2-(methylamino)-6-(3-methylimidazo[1,5-a]pyridin-6-yl)pyrimidin-4-yl]amino]ethanol]
18 | 1 to 500 | Cc1ncc2ccc(-c3nc(N)nc(N[C@@H](c4c[nH]c(C(F)(F)F)n4)C(C)C)n3)cn12 (single isomer, unassigned) [Example 142A, 6-(3-methylimidazo[1,5-a]pyridin-6-yl)-N2-[(1R or 1S)-2-methyl-1-[2-(trifluoromethyl)-1H-imidazol-4-yl]propyl]-1,3,5-triazine-2,4-diamine]
19 | 1 to 500 | Cc1ncc2ccc(-c3nc(N)nc(N[C@@H](CC(C)C)c4c[nH]c(C(F)(F)F)n4)n3)cn12 (single isomer, unassigned) [Example 152B, 6-(3-methylimidazo[1,5-a]pyridin-6-yl)-N4-[(1S or 1R)-3-methyl-1-[2-(trifluoromethyl)-1H-imidazol-4-yl]butyl]-1,3,5-triazine-2,4-diamine]
20 | 1 to 500 | CNc1nc(N[C@@H](c2ccn(C(F)F)n2)C(C)C)nc(-c2ccc3cnn(C)c3c2)n1 (single isomer, unassigned) [Example 29A, N4-[(1S or 1R)-1-[1-(difluoromethyl)pyrazol-3-yl]-2-methyl-propyl]-N2-(trideuteriomethyl)-6-[1-(trideuteriomethyl)indazol-6-yl]-1,3,5-triazine-2,4-diamine]
21 | 1 to 500 | Cc1ncc2ccc(-c3nc(N)nc(N[C@@H](CC4CC4)c4c[nH]c(C(F)(F)F)n4)n3)cn12 (single isomer, unassigned) [Example 7B, N4-[(1S or 1R)-2-cyclopropyl-1-[2-(trifluoromethyl)-1H-imidazol-4-yl]ethyl]-6-(3-methylimidazo[1,5-a]pyridin-6-yl)-1,3,5-triazine-2,4-diamine]
22 | 1 to 500 | Cc1ncc2ccc(-c3nc(N)nc(NC(c4c[nH]c(C(F)(F)F)n4)C4CCCCC4)n3)cn12 (single isomer, unassigned) [Example 153A, N4-[(S or R)-cyclohexyl-[2-(trifluoromethyl)-1H-imidazol-4-yl]methyl]-6-(3-methylimidazo[1,5-a]pyridin-6-yl)-1,3,5-triazine-2,4-diamine]

Row | SMILES | IC50 [nM]
23 | CC[C@@H](Nc1nc(N)nc(-c2ccc3cnc(C)n3c2)n1)c1ccc(F)nc1 (single isomer, unassigned) [Example 141A, N2-[(1R or 1S)-1-(6-fluoro-3-pyridyl)propyl]-6-(3-methylimidazo[1,5-a]pyridin-6-yl)-1,3,5-triazine-2,4-diamine] | 500 to 1000
24 | CC[C@H](Nc1nc(N)nc(-c2ccc3cnc(C)n3c2)n1)c1ccc(F)nc1 (single isomer, unassigned) [Example 141B, N2-[(1R or 1S)-1-(6-fluoro-3-pyridyl)propyl]-6-(3-methylimidazo[1,5-a]pyridin-6-yl)-1,3,5-triazine-2,4-diamine] | 500 to 1000

— patent publication US20250352549A1, “SUBSTITUTED HETEROCYCLIC COMPOUND DERIVATIVES AND THEIR PHARMACEUTICAL USE” (AVELOS THERAPEUTICS INC., priority 0001, published 2025)
